Experimental data taken from patent US9932349B2 (priority 2000, dated 2018).
Where two headings read alike, the source gives them in different places.

Key:
μ opioid receptor = μ opioid receptor (Cavia porcellus, UniProt A0ACM8Q262); assay type: binding, guinea pig
δ opioid receptor = target: T1, δ opioid receptor (Cavia porcellus, UniProt A0A286XTF2); assay: biochemical; assay type: binding, guinea pig
T1 construct: determined in guinea pig brain cells; from tissue; host or cells: guinea pig brain

κ opioid receptor = target: T2, κ opioid receptor (Cavia porcellus, UniProt P41144); assay: biochemical; assay type: binding, guinea pig
T2 construct: determined in guinea pig brain cells; from tissue; host or cells: guinea pig brain

human μ opioid receptor = target: T3, human μ opioid receptor (Homo sapiens, UniProt P35372); assay: biochemical; assay type: binding
T3 construct: expressed in transfected cells; host or cells: Chinese hamster ovary (CHO) cells

human δ opioid receptor = target: T4, human δ opioid receptor (Homo sapiens, UniProt P41143); assay: binding to cloned human receptor in CHO cell membranes, [3H]Naltrindole
T4 construct: expressed in transfected cells; host or cells: Chinese hamster ovary (CHO) cells
Procedure: The affinities of the compounds of the invention were determined in guinea pig brain cells by the method described in Wentland et al. Biorgan. Med. Chem. Lett. 9. […] CHO cell membranes, expressing the human μ, δ, or κ opioid receptor, were incubated with 12 different concentrations of the compounds in the presence of receptor-specific radioligands at 25° C., in a final volume of 1 ml of 50 mM Tris-HCl, pH 7.5. Nonspecific binding was determined using 1 μM naloxone. Data are the mean value ±S.E.M. from three experiments, performed in triplicate.

human κ opioid receptor = target: T5, human κ opioid receptor (Homo sapiens, UniProt P41145); assay: biochemical; assay type: binding
T5 construct: expressed in transfected cells; host or cells: Chinese hamster ovary (CHO) cells

[1] = read-out: Ki [3H] Naltrindole (δ)

T2 sequence (P41144 whole entry): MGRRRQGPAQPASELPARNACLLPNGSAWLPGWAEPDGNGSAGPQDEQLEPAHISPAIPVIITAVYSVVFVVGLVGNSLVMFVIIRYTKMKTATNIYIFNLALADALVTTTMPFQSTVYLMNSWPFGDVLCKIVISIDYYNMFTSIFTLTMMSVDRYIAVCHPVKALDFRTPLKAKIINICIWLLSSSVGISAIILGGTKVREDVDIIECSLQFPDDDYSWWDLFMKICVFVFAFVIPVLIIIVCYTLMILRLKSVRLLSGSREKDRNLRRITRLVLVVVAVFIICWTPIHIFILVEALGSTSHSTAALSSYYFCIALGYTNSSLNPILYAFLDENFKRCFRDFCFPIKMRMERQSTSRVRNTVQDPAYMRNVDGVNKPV
T4 sequence (P41143 whole entry): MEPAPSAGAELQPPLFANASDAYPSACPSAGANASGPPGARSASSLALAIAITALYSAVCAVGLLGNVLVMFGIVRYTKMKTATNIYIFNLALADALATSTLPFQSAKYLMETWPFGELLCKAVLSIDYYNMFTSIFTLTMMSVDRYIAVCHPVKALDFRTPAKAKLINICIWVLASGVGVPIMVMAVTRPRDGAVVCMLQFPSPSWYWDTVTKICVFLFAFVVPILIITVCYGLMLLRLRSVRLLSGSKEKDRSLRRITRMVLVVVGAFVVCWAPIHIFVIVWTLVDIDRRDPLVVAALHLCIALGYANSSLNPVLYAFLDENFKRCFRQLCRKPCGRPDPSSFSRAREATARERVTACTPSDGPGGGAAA
T5 sequence (P41145 whole entry): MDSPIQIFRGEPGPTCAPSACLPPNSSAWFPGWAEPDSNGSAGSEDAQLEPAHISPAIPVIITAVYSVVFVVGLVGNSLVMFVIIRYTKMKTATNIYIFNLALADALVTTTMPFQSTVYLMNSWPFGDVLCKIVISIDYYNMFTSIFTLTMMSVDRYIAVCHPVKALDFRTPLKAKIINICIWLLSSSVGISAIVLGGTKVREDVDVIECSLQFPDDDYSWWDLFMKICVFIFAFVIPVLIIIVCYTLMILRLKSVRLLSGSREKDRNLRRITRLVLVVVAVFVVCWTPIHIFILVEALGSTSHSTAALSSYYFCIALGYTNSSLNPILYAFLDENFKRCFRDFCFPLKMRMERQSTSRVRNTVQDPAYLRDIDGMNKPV
Chain of μ opioid receptor (A0ACM8Q262 1-400): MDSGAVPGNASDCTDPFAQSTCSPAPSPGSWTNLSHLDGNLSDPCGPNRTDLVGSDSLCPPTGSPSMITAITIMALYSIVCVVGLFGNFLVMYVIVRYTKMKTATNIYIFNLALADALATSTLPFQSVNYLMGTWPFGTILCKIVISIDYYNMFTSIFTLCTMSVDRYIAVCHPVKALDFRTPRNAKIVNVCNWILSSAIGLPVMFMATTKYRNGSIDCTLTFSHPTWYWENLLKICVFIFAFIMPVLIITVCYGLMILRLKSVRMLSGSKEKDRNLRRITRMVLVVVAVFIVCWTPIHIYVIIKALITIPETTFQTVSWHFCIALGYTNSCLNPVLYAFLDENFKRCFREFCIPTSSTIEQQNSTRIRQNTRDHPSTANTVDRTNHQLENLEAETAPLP
T1 sequence (A0A286XTF2 1-366): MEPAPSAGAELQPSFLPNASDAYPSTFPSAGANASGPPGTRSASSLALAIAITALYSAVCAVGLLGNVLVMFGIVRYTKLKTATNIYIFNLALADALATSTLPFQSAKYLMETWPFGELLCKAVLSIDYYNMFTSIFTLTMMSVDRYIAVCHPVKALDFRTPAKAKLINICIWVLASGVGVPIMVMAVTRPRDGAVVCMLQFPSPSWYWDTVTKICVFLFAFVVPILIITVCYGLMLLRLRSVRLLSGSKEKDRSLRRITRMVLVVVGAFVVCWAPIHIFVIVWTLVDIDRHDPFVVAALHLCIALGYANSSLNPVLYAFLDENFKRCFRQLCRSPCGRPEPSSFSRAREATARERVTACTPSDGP
T3 sequence (P35372 whole entry): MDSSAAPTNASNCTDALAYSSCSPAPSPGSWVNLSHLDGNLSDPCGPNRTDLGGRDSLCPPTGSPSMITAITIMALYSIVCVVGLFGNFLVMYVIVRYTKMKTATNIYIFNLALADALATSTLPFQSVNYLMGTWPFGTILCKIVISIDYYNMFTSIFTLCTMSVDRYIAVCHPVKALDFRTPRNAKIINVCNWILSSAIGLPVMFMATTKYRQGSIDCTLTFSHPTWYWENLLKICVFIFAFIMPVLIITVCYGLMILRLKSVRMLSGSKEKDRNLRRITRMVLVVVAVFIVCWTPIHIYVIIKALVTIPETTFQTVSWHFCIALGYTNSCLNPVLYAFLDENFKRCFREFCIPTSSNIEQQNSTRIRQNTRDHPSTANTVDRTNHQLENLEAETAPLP

Work on `NC(=O)c1ccc2c3c1OC1C(=O)CCC4(O)C(C2)N(CC2CC2)CCC314` (stereo not drawn) [Example 32] yielded a Ki (μ opioid receptor; read-out: [3H] DAMGO (μ)) of 1.9 ± 0.21 nM, a Ki (δ opioid receptor; read-out: [3H] Naltrindole (δ)) of 110 ± 8.1 nM and a Ki (κ opioid receptor; read-out: [3H] U69,593 (κ)) of 22 ± 0.85 nM.

`CC1C2Cc3ccc(O)cc3C1(C)CCN2CC1CCCO1` (single isomer, unassigned) [Example 27, reference compound] showed a Ki (δ opioid receptor; [3H] Naltrindole (δ)) of 67 ± 4.3 nM and a Ki (κ opioid receptor; [3H] U69,593 (κ)) of 1.5 ± 0.07 nM.

Work on `CC1C2Cc3ccc(NC(N)=O)cc3C1(C)CCN2CC1CC1` (racemic) [Example 36] yielded a Ki (μ opioid receptor; read-out: Ki [3H] DAMGO (μ)) of 20 ± 0.66 nM, a Ki (δ opioid receptor; [1]) of 90 ± 12 nM and a Ki (κ opioid receptor; read-out: Ki [3H] U69,593 (κ)) of 15 ± 1.4 nM.

In the case of `CC1C2Cc3ccc(C(=O)c4ccccc4)cc3C1(C)CCN2CC1CC1` (stereo not drawn) [Example 17], the Ki (δ opioid receptor; Ki [3H] Naltrindole (δ)) is reported as 490 ± 43 nM and the Ki (κ opioid receptor; Ki [3H] U69,593 (κ)) is reported as 19 ± 2.6 nM.

Compound `CCOC(=O)c1ccc2c3c1OC1C(=O)CCC4(O)C(C2)N(CC2CC2)CCC314` (stereo not drawn) [Example 33] has a Ki (μ opioid receptor; read-out: [3H] DAMGO (μ)) of 24 ± 1.7 nM, a Ki (δ opioid receptor; read-out: [3H] Naltrindole (δ)) of 970 ± 155 nM and a Ki (κ opioid receptor; read-out: [3H] U69,593 (κ)) of 16 ± 0.7 nM.

For `C[C@H]1[C@H]2Cc3ccc(O)cc3[C@]1(C)CCN2CC1CC1` [(−)-Cyclazocine, Cyclazocine, reference compound], the Ki (δ opioid receptor; read-out: [3H] Naltrindole (δ)) was 0.58 ± 0.06 nM and the Ki (κ opioid receptor; read-out: [3H]U69,593 (κ)) was 0.052 ± 0.009 nM.

`C[C@H]1[C@H]2Cc3ccc(O)cc3[C@]1(C)CCN2CC1CC1` [(+)-Cyclazocine, Cyclazocine, reference compound] was tested, and the Ki (δ opioid receptor; read-out: [3H] Naltrindole (δ)) was 1100 ± 63 nM and the Ki (κ opioid receptor; read-out: [3H]U69,593 (κ)) was 76 ± 8.2 nM.

`Oc1ccc2c3c1O[C@H]1c4[nH]c5ccccc5c4C[C@@]4(O)[C@@H](C2)N(CC2CC2)CC[C@]314` [naltrindole (3-OH), Naltrindole, reference compound] gave a Ki (κ opioid receptor; [3H] U69,593 (κ)) of 4.6 ± 0.23 nM.

In the case of `CC1C2Cc3ccc(NC(N)=S)cc3C1(C)CCN2CC1CC1` (racemic) [Example 37], the Ki (human μ opioid receptor; read-out: Ki [3H] DAMGO (μ)) is reported as 10 ± 1.7 nM, the Ki (human δ opioid receptor; read-out: Ki [3H] Naltrindole (δ), Table 1, footnote a: chinese hamster ovary rather than guinea pig brain) is reported as 440 ± 72 nM and the Ki (human κ opioid receptor; read-out: Ki [3H] U69,593 (κ)) is reported as 4 ± 0.54 nM.

`CC1C2Cc3ccc(CN)cc3C1(C)CCN2CC1CC1` (mixture of isomers) [Example 15, (±)-[3-(Cyclopropylmethyl)-1,2,3,4,5,6,-hexahydro-cis-6,11-dimethyl-2,6-methano-3-benzazocin-8-yl]-methylamine] showed a Ki (δ opioid receptor; Ki [3H] Naltrindole (δ)) of 390 ± 47 nM and a Ki (κ opioid receptor; Ki [3H] U69,593 (κ)) of 17 ± 2.9 nM.

`CC1C2Cc3ccc(NC=O)cc3C1(C)CCN2CC1CC1` (single isomer, unassigned) [Example 19b] showed a Ki (δ opioid receptor; Ki [3H] Naltrindole (δ)) greater than 10000 nM and a Ki (κ opioid receptor; Ki [3H] U69,593 (κ)) of 900 ± 8.7 nM.

For `CC1C2Cc3ccc(C(N)=O)cc3C1(C)CCN2CC1CC1` (single isomer, unassigned) [Example 4a], the Ki (δ opioid receptor; Ki [3H] Naltrindole (δ)) was 2.6 ± 0.6 nM.

`CC1C2Cc3ccc(C(=O)NCCN(C)C)cc3C1(C)CCN2CC1CC1` (stereo not drawn) [Example 11] was tested, and the Ki (δ opioid receptor; Ki [3H] Naltrindole (δ)) was 350 ± 51 nM and the Ki (κ opioid receptor; Ki [3H] U69,593 (κ)) was 44 ± 11 nM.

`CC1C2Cc3ccc(CC#N)cc3C1(C)CCN2CC1CC1` (stereo not drawn) [Example 38] gave a Ki (human μ opioid receptor) of 3.3 ± 1.5 nM, a Ki (human δ opioid receptor) of 2000 ± 685 nM and a Ki (human κ opioid receptor) of 2.9 ± 0.36 nM.

`CC1C2Cc3ccc(NC=O)cc3C1(C)CCN2CC1CC1` (mixture of isomers) [Example 19, (±)-N-[3-(Cyclopropylmethyl)-1,2,3,4,5,6,-hexahydro-cis-6,11-dimethyl-2,6-methano-3-benzazocin-8-yl]-formamide] showed a Ki (δ opioid receptor; [1]) of 37 ± 3.9 nM and a Ki (κ opioid receptor; read-out: Ki [3H] U69,593 (κ)) of 0.85 ± 0.08 nM.

With `CC1C2Cc3ccc(NC=S)cc3C1(C)CCN2CC1CC1` (stereo not drawn) [Example 20] the Ki (δ opioid receptor; Ki [3H] Naltrindole (δ)) was 16 ± 0.3 nM and the Ki (κ opioid receptor; Ki [3H] U69,593 (κ)) was 0.63 ± 0.15 nM.

`Oc1ccc2c(c1)C13CCCCC1(O)C(C2)N(CC1CCC1)CC3` (stereo not drawn) [butorphanol, Butorphanol, reference compound] was tested, and the Ki (human δ opioid receptor) was 12 ± 3.8 nM and the Ki (human κ opioid receptor) was 0.22 ± 0.023 nM.

`C[C@H]1[C@H]2Cc3ccc(C(=O)O)cc3[C@]1(C)CCN2CC1CC1` (racemic) [Example 2] was tested, and the Ki (δ opioid receptor; Ki [3H] Naltrindole (δ)) was 320 ± 14 nM and the Ki (κ opioid receptor; Ki [3H] U69,593 (κ)) was 31 ± 0.87 nM.

`CC1C2Cc3ccc(O)cc3C1(C)CCN2CC1CCCO1` (single isomer, unassigned) [Example 25, reference compound] gave a Ki (δ opioid receptor; [3H] Naltrindole (δ)) of 3.6 ± 0.4 nM and a Ki (κ opioid receptor; [3H] U69,593 (κ)) of 0.09 ± 0.01 nM.

Compound `C[C@H]1C2Cc3ccc(C#N)cc3[C@@]1(C)CCN2CC1CC1` (racemic) [Example 1, (±)-3-(Cyclopropylmethyl)-1,2,3,4,5,6-hexahydro-cis-6,11-dimethyl-2,6-methano-3-benzazocin-8-carbonitrile] has a Ki (δ opioid receptor; Ki [3H] Naltrindole (δ)) of 2700 ± 1400 nM and a Ki (κ opioid receptor; Ki [3H] U69,593 (κ)) of 71 ± 13 nM.

In the case of `C[C@H]1C2Cc3ccc(CO)cc3[C@@]1(C)CCN2CC1CC1` (racemic) [Example 16, (±)-[3-(Cyclopropylmethyl)-1,2,3,4,5,6,-hexahydro-cis-6,11-dimethyl-2,6-methano-3-benzazocin-8-yl]-methanol], the Ki (δ opioid receptor; Ki [3H] Naltrindole (δ)) is reported as 210 ± 29 nM and the Ki (κ opioid receptor; Ki [3H] U69,593 (κ)) is reported as 7.6 ± 0.8 nM.

`CC1C2Cc3ccc(C=NO)cc3C1(C)CCN2CC1CC1` (stereo not drawn) [Example 39] was tested, and the Ki (human μ opioid receptor) was 18 ± 1.8 nM, the Ki (human δ opioid receptor) was 140 ± 15 nM and the Ki (human κ opioid receptor) was 0.73 ± 0.03 nM.

Work on `CCC12CCN(CC3CC3)C(C(=O)c3ccc(C(N)=O)cc31)C2C` (stereo not drawn) [Example 24] yielded a Ki (δ opioid receptor; read-out: [3H] Naltrindole (δ)) of 9.8 ± 0.5 nM and a Ki (κ opioid receptor; read-out: [3H] U69,593 (κ)) of 0.7 ± 0.08 nM.

With `CC[C@@]12CCN(CC3CC3)C(C(=O)c3ccc(O)cc31)C2C` (mixture of isomers) [(±)-EKC, Ethylketocyclazocine, reference compound] the Ki (δ opioid receptor; [3H] Naltrindole (δ)) was 3.4 ± 0.41 nM.
